Reference: patent US8153633B2, “Phthalazine compounds, compositions and methods of use” (Amgen Inc., priority 2007, dated 2012)

What was measured:
[1] = test system: Gli1 expression (Smoothened signaling); experiment: Gli1 expression in mouse skin after depilation and oral compound dosing (quantitative PCR relative to RGS); format: in vivo; settings: five days after depilation, six hours after administration
Method: Paladini et al. (2005) J Invest Dermatol 125:638-646. For this work, the mice were deplilated using wax strips (Sally Hansen, Del Laboratories, Inc, Uniondale, N.Y.). Five days after depilation, mice were dosed orally with compound or vehicle. Six hours after compound administration, animals were euthanized and skin samples were collected. RNA was purified from the skin samples using a mirVana miRNA Isolation kit (Ambion, Austin, Tex.). cDNA was prepared from the RNA, and Gli1 expression levels were determined by real-time, quantitative PCR relative to the RGS reference gene.

[2] = test system: medulloblastomas from Ptch+/−p53−/− mice; experiment: Mouse medulloblastoma allograft model, antitumor activity in vivo; settings: 10 mg/kg, one dose per day, after 6 days of treatment; tumors of average size 200 mm^3 at start
Method: Briefly, medulloblastomas from Ptch+/−p53−/− mice were subcutaneously implanted into immunocompromised mice, and subsequent passages of these tumor allografts were used for compound testing. For compound studies, animals bearing tumors with an average size of 200 mm^3 were treated with vehicle or 10 mg/kg compound 23 on a schedule of one dose per day for a total of 6 days.

Row | SMILES | [Gli1/RGS ratio compound]/[Gli1/RGS ratio vehicle] ([1]; 100 mg/kg oral) | [Gli1/RGS ratio compound]/[Gli1/RGS ratio vehicle] ([1]; 50 mg/kg oral) | reduction in tumor size relative to vehicle control [2] [%]
1 | C[C@H]1CN(c2nnc(-c3ccccc3)c3ccccc23)CCN1C(=O)c1ccccc1 [Compound 5, (S)-(2-methyl-4-(4-phenylphthalazin-1-yl)piperazin-1-yl)(phenyl)-methanone] | 0.41 | – | –
2 | C[C@@H]1CN(C(=O)c2ccccc2)CCN1c1nnc(-c2ccc(C(F)(F)F)cc2)c2ccccc12 [Compound 23, (R)-(3-methyl-4-(4-(4-(trifluoromethyl)-phenyl)-phthalazin-1-yl)piperazin-1-yl)(phenyl)-methanone] | – | 0.33 | > 99
